Patent US5521160A, “Sulfuric acid esters of sugar alcohols” (Hoffmann-La Roche Inc., priority 1994, dated 1996)
pIC50: −log10 of the molar value. Counter-ions that a name gives are not always drawn. Like-named read-outs stand apart in the source and are kept apart here.

Columns and labels:
[1] = system: rat smooth muscle cells; test: Antiproliferative activity (growth inhibition of rat smooth muscle cells, relative to heparin); format: cell-based; conditions: 100 μg/ml, 48 hours, relative to heparin 100 μg/ml in same experiment
Protocol: The antiproliferative activity of a substance is expressed as the ri value which is a comparative value to the corresponding activity of heparin and which was determined in cell cultures as follows: rat smooth muscle cells were applied to cell culture plates in a density of 8×10^3 cells/well (medium: DMEM with 10% FCS. Cultivation at 37° C. and 5% CO2). After 4 hours the number of adhered cells was determined and the compounds to be tested (100 μg/ml, dissolved in H2 O) were added. The controls were a) cells to which test compound was not added and b) heparin (100 μg/ml). Subsequently, the cells were incubated for 48 hours and thereafter the cell count was determined once more.
The inhibition i of the cell growth, i.e. the percent reduction in the growth rate of the cells compared to the control, was calculated from these values: [formula] the growth rate μ being calculated as [formula] in which Z is the number of cells.
Finally, ri --the relative inhibitory activity--which expresses the activity of a substance (at 100 μg/ml) in comparison to the activity of heparin in the same concentration in the same experiment, was calculated: [formula]

[2] = biological target: T1, thrombin (Homo sapiens, UniProt P00734); test: biochemical; format: biochemical
T1 construct: purchased Roche, Basle (Thrombin Reagent)
Protocol: (§1) The blood coagulation-inhibiting activity was determined as follows:
Inhibition of Thrombin or Factor Xa in the Chromogenic Substrate Assay (Teien. et al., Thrombosis Research 10, 399-410 (1977)): The determination was effected in a Cobas-Bio centrifugal automatic spectrophotometer. The buffer solution used consisted of 50 mM Tris buffer, 180 mM NaCl, 7.5 mM EDTA Na2, 1% PEG 6000 and 0.02% Tween 80, pH 8.4. The test solution consisted of 50 μl of buffer, 30 μl of antithrombin III (1 U/ml, Kabi Diagnostica) and 20 μl of plasma which contained various concentrations of test compounds. 30 μl of sample solution and 20 μl of water with 180 μl of thrombin (1 U/ml, Thrombin Reagent Roche Basle) were added to the test cuvette in the automatic analyzer. After incubation at 37° C. for 240 seconds, 60 μl of S-2238 (H-D-Phe-Pip-Arg-NH.pNA, Kabi Diagnostica, Mondal, Sweden, 0.75 mM in water) and 20 μl of water were added. The liberation of pNA (p-nitroaniline) was followed during 60 seconds at 405 nm in 10 second intervals in comparison to water as the blank.

[3] = biological target: T2, Factor Xa (Bos taurus, UniProt P00743); test: Inhibition of Factor Xa in the chromogenic substrate assay (blood coagulation inhibition); format: biochemical
T2 sequence (P00743 41-180 limits assumed): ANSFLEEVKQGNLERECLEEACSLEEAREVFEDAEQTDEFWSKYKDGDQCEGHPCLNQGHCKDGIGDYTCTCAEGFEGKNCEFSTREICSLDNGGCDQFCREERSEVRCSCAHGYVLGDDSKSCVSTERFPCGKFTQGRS
Protocol: as §1
Inhibition of Thrombin or Factor Xa in the Chromogenic Substrate Assay (Teien. et al., Thrombosis Research 10, 399-410 (1977)): The determination was effected in a Cobas-Bio centrifugal automatic spectrophotometer. The buffer solution used consisted of 50 mM Tris buffer, 180 mM NaCl, 7.5 mM EDTA Na2, 1% PEG 6000 and 0.02% Tween 80, pH 8.4. The test solution consisted of 50 μl of buffer, 30 μl of antithrombin III (1 U/ml, Kabi Diagnostica) and 20 μl of plasma which contained various concentrations of test compounds.
The inhibition of Factor Xa was measured in the same manner using a solution of Factor Xa (2.8 nkat/ml) and 2 mM S-2222 (Bz-CO-Ile-Glu-Arg-NH.pNA, Kabi Diagnostica) in water in place of thrombin or S-2238.

[4] = read-out: Anticoagulative Activity IC50 Thrombin; chromogenic substrate S-2238, antithrombin III, plasma, pH 8.4, 37° C.
[5] = read-out: Anticoagulative Activity IC50 Factor Xa; chromogenic substrate S-2222, antithrombin III, plasma
[6] = chromogenic substrate S-2238, antithrombin III, plasma, pH 8.4, 37° C.; read-out: Anticoagulative Activity IC50 Thrombin
[7] = chromogenic substrate S-2222, antithrombin III, plasma; read-out: Anticoagulative Activity IC50 Factor Xa

pIC50 [2, 6] | pIC50 [3, 7] | Anticoagulative Activity IC50 Thrombin ([2]; chromogenic substrate S-2238, antithrombin III, plasma, pH 8.4, 37° C.) [µg/mL] | Anticoagulative Activity IC50 Factor Xa ([3]; chromogenic substrate S-2222, antithrombin III, plasma) [µg/mL] | Molecule | Antiproliferative Activity ri (relative inhibitory activity compared with heparin) [1] | pIC50 [2, 4] | pIC50 [3, 5]
 |  |  |  | O=[N+]([O-])c1cc(S(=O)(=O)c2ccc(NC[C@H](OS(=O)(=O)O)[C@@H](OS(=O)(=O)O)[C@H](OS(=O)(=O)O)[C@@H](COS(=O)(=O)O)OS(=O)(=O)O)c([N+](=O)[O-])c2)ccc1NC[C@H](OS(=O)(=O)O)[C@@H](OS(=O)(=O)O)[C@H](OS(=O)(=O)O)[C@@H](COS(=O)(=O)O)OS(=O)(=O)O [Example 67, N,N'-bis-(2,3,4,5,6-penta-O-sulfo-D-glucit-1-yl)-2,2'-dinitro-4,4'-sulfonyldianiline decasodium salt] | 1.0 | < 3.17 | < 3.17
 |  |  |  | O=C(Nc1ccc(Cc2ccc(NC(=O)c3ccc(NC[C@H](OS(=O)(=O)O)[C@@H](OS(=O)(=O)O)[C@H](OS(=O)(=O)O)[C@@H](COS(=O)(=O)O)OS(=O)(=O)O)c([N+](=O)[O-])c3)cc2)cc1)c1ccc(NC[C@H](OS(=O)(=O)O)[C@@H](OS(=O)(=O)O)[C@H](OS(=O)(=O)O)[C@@H](COS(=O)(=O)O)OS(=O)(=O)O)c([N+](=O)[O-])c1 [Example 68, 4,4'-bis-(2,3,4,5,6-penta-O-sulfo-D-glucit-1-ylamino)-3,3'-dinitro-N,N'-(4,4'-methylene-diphenyl)-dibenzamide decasodium salt] | 1.1 | < 3.22 | < 3.22
< 3.16 | < 3.16 |  |  | O=C(NC[C@H](OS(=O)(=O)O)[C@@H](OS(=O)(=O)O)[C@H](OS(=O)(=O)O)[C@@H](COS(=O)(=O)O)OS(=O)(=O)O)c1ccc(/C=C/c2ccc(C(=O)NC[C@H](OS(=O)(=O)O)[C@@H](OS(=O)(=O)O)[C@H](OS(=O)(=O)O)[C@@H](COS(=O)(=O)O)OS(=O)(=O)O)cc2Cl)cc1 [Example 85, (E)-2-chlorostilbene-4,4'-dicarboxylic acid bis-(2,3,4,5,6-penta-O-sulfo-D-glucit-1-ylamide) decasodium salt] | 2.1 |  | 
< 3.08 | < 3.08 |  |  | C[C@H](OS(=O)(=O)O)[C@H](OS(=O)(=O)O)[C@@H](OS(=O)(=O)O)[C@H](CNC(=O)c1ccc(/C=C\c2ccc(C(=O)NC[C@H](OS(=O)(=O)O)[C@H](OS(=O)(=O)O)[C@@H](OS(=O)(=O)O)[C@H](C)OS(=O)(=O)O)cc2)cc1)OS(=O)(=O)O [Example 93, (Z)-stilbene-4,4'-dicarboxylic acid bis-(2,3,4,5,6-penta-O-sulfo-L-rhamnit-1-ylamide) octasodium salt] | 1.0 |  | 
 |  | 1.9 | 2.7 | heparin [reference compound] | 1.0 |  | 
